How the values were obtained:
[1] = biological target: T1, TYK2-JH2 (aa 575-869, in-house) protein (Homo sapiens, UniProt P29597); assay: TYK2-JH2 biochemical assay (HTRF probe displacement); type: binding; details: Biochemical assay; read-out: TYK2-JH2 IC50
T1 construct: TYK2-JH2 (aa 575-869, in-house) protein; made in house
Procedure: Assay A: TYK2-JH2 Biochemical Assay
Compounds disclosed herein were tested for blocking of TYK2-JH2 (aa 575-869, in-house) protein with its probe in an assay based on Homogeneous Time Resolved Fluorescence. Compound dilution is done according to the following protocol: (1) Prepare 500× compounds solution in DMSO from 500 uM by 5-fold dilution, total 10 doses were included; (2) Prepare 10× compounds solution in an assay buffer containing 20 mM HEPES, pH 7.5, 10 mM MgCl2, 0.005% BSA, 2 mM DTT, 0.015% Brij-35 by transferring 1 μl serial 500× stock solution into 49 μl assay buffer. […] of 0.2 nM recombinant TYK2-JH2 protein was pre-incubated with 1 μl of 10× serial dilution of compounds at room temperature for 0.5 hour. […] The HTRF signals (ex337 nm, em620 nm/665 nm) were read on BMG PHERAstar FS instrument. The inhibition percentage of TYK2 interaction with its probe in presence of increasing concentrations of compounds was calculated based on the ratio of fluorescence at 615 nm to that at 665 nm. The IC50 for each compound was derived from fitting the data to the four-parameter logistic equation by Dotmatics.

[2] = tested on: JAK2, TYK2/p-STAT4 (Tyr693) activated by IL-12 in NK-92 cell line; assay: IL-12-JAK2, TYK2/p-STAT4 (Tyr693) inhibition IC50 cellular assay; type: cell-based; details: for IC50: NK92, Cellular assay, read-out: pSTAT4/IL-12 IC50; for Selectivity fold (TYK2/JAK2): Cellular assay, pSTAT5/GM-CSF IC50 vs pSTAT4/IL-12 IC50
From the text: Assay C: IL-12-JAK2, TYK2/p-STAT4 (Tyr693) Inhibition IC50 Cellular Assay
To evaluate the inhibition effect of compounds disclosed herein on JAK2, TYK2/p-STAT4 (Tyr693) activated by IL-12 in NK-92 cell line, NK-92 cells were collected and washed 3 times by DPBS and resuspended in MEM-α (GIBCO, Cat #12561056) with 10% FBS (Gibco, Cat #10099, Lot #1891605), without IL-2 (R&D systems, Cat #202-IL), starved overnight. Cells were collected and resuspended in 1640 medium (phenol red free, Gibco, Cat #11835-030) with 0.1% BSA, and 12.5 μl/5×10^4/well cell suspension were seeded to the 96-well plate (Corning, Cat #3799). Then cells were treated with compounds diluted in 0.2% DMSO 1640 medium, at 37° C., 1 h. Dilution is done according to the following protocol: (1) make 500× compounds solution in DMSO from 5 mM by 4-fold dilution, total 8 doses were included; (3) make 2× compounds solution in assay medium by transferring 0.5 μl serial 500× stock solution into 125 μl assay medium; (4) 15 μl of 2× serial solution is added to cells and incubate at 37° C. for 1 h, the final compound conc. is 10000, 2500, 625, 156.25, 39, 9.8, 2.4 and 0.61 nM, respectively. After 1 h, cells were treated with 2.5 μl medium containing IL-12 at 37° C. (R&D systems, Cat #219-IL-005, final conc. 40 ng/ml), 30 min. Following cells were lysed with 7.5 μl lysis buffer at RT, shaking on shaker for 1 h. 10 μL of cell lysate were transferred to a PE 384-well Proxiplate detection plate, and 5 μL of pre-mixed Alphascreen beads were added to each well. Covered the plate with a plate sealer, span 1000 rpm for 1 min, mix, Incubated overnight at room temperature. Read on BMG PheraStar with Alphascreen protocol. IC 50 values were calculated by fitting dependent data to the four-parameter logistic model using dotmatics software. The assay was performed by using AlphaLISA SureFire Ultra p-STAT4 (Tyr693) Assay Kit—High Volume (PE, Cat #ALSU-PST4-A-HV).

[3] = tested on: pSTAT5/GM-CSF; assay: pSTAT5/GM-CSF cellular assay (JAK2 selectivity); type: cell-based; details: for Selectivity fold (TYK2/JAK2): pSTAT5/GM-CSF IC50 over pSTAT4/IL-12 IC50

T1 sequence (P29597 575-869): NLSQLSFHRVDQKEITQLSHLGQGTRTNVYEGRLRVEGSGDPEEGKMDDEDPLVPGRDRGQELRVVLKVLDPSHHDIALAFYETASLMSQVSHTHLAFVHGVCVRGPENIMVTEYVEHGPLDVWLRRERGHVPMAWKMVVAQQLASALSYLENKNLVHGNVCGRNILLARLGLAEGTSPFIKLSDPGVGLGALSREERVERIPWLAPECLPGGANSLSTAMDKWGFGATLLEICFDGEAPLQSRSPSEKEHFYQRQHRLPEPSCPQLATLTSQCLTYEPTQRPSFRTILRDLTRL

Row | SMILES | IC50 [1] [nM] | IC50 [2] [nM] | IC50 [3] [nM] | Selectivity fold (TYK2/JAK2) [3] [fold] | Selectivity fold (TYK2/JAK2) [2] [fold]
1 | CC(=O)Nc1cc(Nc2cc(OC(C)C)cc(S(C)(=O)=O)n2)c(-c2ccc3c(n2)OCO3)cn1 [Example Q2, N-(5-([1,3]dioxolo[4,5-b]pyridin-5-yl)-4-((4-isopropoxy-6-(methylsulfonyl)pyridin-2-yl)amino)pyridin-2-yl)acetamide] | 0.021 | 1.7 | > 10000 | >5882 | –
2 | CO[C@H](C)COc1cc(Nc2cc(NC(C)=O)ncc2-c2cc(C)n(C)n2)nc(S(C)(=O)=O)c1 [Example N6, (R)-N-(5-(1,5-dimethyl-1H-pyrazol-3-yl)-4-((4-(2-methoxypropoxy)-6-(methylsulfonyl)pyridin-2-yl)amino)pyridin-2-yl)acetamide] | 0.039 | 0.274 | > 10000 | >36496 | –
3 | COCc1ccc(-c2cnc(NC(C)=O)cc2Nc2cc(OC(C)C)cc(S(C)(=O)=O)n2)nc1 [Example E4, N-(4′-((4-isopropoxy-6-(methylsulfonyl)pyridin-2-yl)amino)-5-(methoxymethyl)-[2,3′-bipyridin]-6′-yl)acetamide] | 0.022 | 0.536 | > 10000 | – | >18656
4 | CC(=O)Nc1cc(Nc2cc(OC(C)C)cc(S(C)(=O)=O)c2)c(-c2ccn(C(C)C)n2)cn1 [Example M26, N-(4-((3-isopropoxy-5-(methylsulfonyl)phenyl)amino)-5-(1-isopropyl-1H-pyrazol-3-yl)pyridin-2-yl)acetamide] | 0.046 | 4.33 | > 10000 | >2309 | –
5 | CC(=O)Nc1cc(Nc2cccc(S(C)(=O)=O)n2)c(-c2ccn(C(C)C)n2)cn1 [Example M22, N-(5-(1-isopropyl-1H-pyrazol-3-yl)-4-((6-(methylsulfonyl)pyridin-2-yl)amino)pyridin-2-yl)acetamide] | 0.027 | 0.316 | 532 | 1683 | –
6 | CC(=O)Nc1cc(Nc2nc(S(C)(=O)=O)ccc2C)c(-c2ccn(C)n2)cn1 [Example J27, N-(5-(1-methyl-1H-pyrazol-3-yl)-4-((3-methyl-6-(methylsulfonyl)pyridin-2-yl)amino)pyridin-2-yl)acetamide] | 0.04 | 0.439 | > 10000 | >22779 | –
7 | CC(=O)Nc1cc(Nc2cc(-c3cnccc3C)cc(S(C)(=O)=O)n2)c(-c2ccc3c(n2)OCC(C)(C)O3)cn1 [Example Q62, N-(5-(2,2-dimethyl-2,3-dihydro-[1,4]dioxino[2,3-b]pyridin-6-yl)-4-((4-methyl-6′-(methylsulfonyl)-[3,4′-bipyridin]-2′-yl)amino)pyridin-2-yl)acetamide] | 0.047 | 1.79 | > 10000 | >5586 | –
8 | COc1ccc(-c2cnc(NC(C)=O)cc2Nc2nc(S(C)(=O)=O)cc3c2OCO3)nn1 [Example A28, N-(5-(6-methoxypyridazin-3-yl)-4-((6-(methylsulfonyl)-[1,3]dioxolo[4,5-c]pyridin-4-yl)amino)pyridin-2-yl)acetamide] | 0.033 | 1.52 | > 10000 | – | >6578
9 | CC(=O)Nc1cc(Nc2cccc(S(C)(=O)=O)n2)c(-c2ccc(N3C[C@@H](C)O[C@@H](C)C3)cn2)cn1 [Example C2, N-(5-((cis)-2,6-dimethylmorpholino)-4′-((6-(methylsulfonyl)pyridin-2-yl)amino)-[2,3′-bipyridin]-6′-yl)acetamide] | 0.026 | 0.312 | 962 | – | 3083
10 | CC(=O)Nc1cc(Nc2cccc(S(C)(=O)=O)n2)c(-c2ccc(OC3CCOC3)cn2)cn1 (centres unmarked) [Example B23, N-(4′-((6-(methylsulfonyl)pyridin-2-yl)amino)-5-((tetrahydrofuran-3-yl)oxy)-[2,3′-bipyridin]-6′-yl)acetamide] | 0.04 | 0.307 | 1000 | – | 3260
11 | COCc1ccc(-c2cnc(NC(C)=O)cc2Nc2cc(OC[C@@H](C)OC)cc(S(C)(=O)=O)n2)nc1 [Example E3, (R)-N-(5-(methoxymethyl)-4′-((4-(2-methoxypropoxy)-6-(methylsulfonyl)pyridin-2-yl)amino)-[2,3′-bipyridin]-6′-yl)acetamide] | 0.035 | 0.645 | > 10000 | – | >15503
12 | COc1ccc(S(C)(=O)=O)nc1Nc1cc(NC(C)=O)ncc1-c1cnn(C)c1 [Example A11, N-(4-((3-methoxy-6-(methylsulfonyl)pyridin-2-yl)amino)-5-(1-methyl-1H-pyrazol-4-yl)pyridin-2-yl)acetamide] | 0.063 | 41.7 | > 10000 | – | >239
13 | CC(=O)Nc1cc(Nc2cc(C)cc(S(C)(=O)=O)n2)c(-c2ccn(C3CCOC3)n2)cn1 (centres unmarked) [Example M31, N-(4-((4-methyl-6-(methylsulfonyl)pyridin-2-yl)amino)-5-(1-(tetrahydrofuran-3-yl)-1H-pyrazol-3-yl)pyridin-2-yl)acetamide] | 0.031 | 0.828 | 1420 | 1714 | –
14 | CC(=O)Nc1cc(Nc2cccc(S(C)(=O)=O)c2)c(-c2ncn(C)n2)cn1 [Example A10, N-(5-(1-methyl-1H-1,2,4-triazol-3-yl)-4-((3-(methylsulfonyl)phenyl)amino)pyridin-2-yl)acetamide] | 2.4 | 3000 | – | – | –
15 | CC(=O)Nc1cc(Nc2cccc(S(C)(=O)=O)n2)c(-c2cnn(C)c2)cn1 [Example A8, N-(5-(1-methyl-1H-pyrazol-4-yl)-4-((6-(methylsulfonyl)pyridin-2-yl)amino)pyridin-2-yl)acetamide] | 0.26 | – | – | – | –
16 | CC(=O)Nc1cc(Nc2cc(OC(C)C)cc(S(C)(=O)=O)c2)c(-c2ccc(F)cn2)cn1 [Example F14, N-(5-fluoro-4′-((3-isopropoxy-5-(methylsulfonyl)phenyl)amino)-[2,3′-bipyridin]-6′-yl)acetamide] | 0.13 | – | – | – | –
17 | COc1cc(Nc2cc(NC(C)=O)ncc2-c2ccc(C(C)(C)O)cn2)cc(S(C)(=O)=O)c1 [Example H4, N-(5-(2-hydroxypropan-2-yl)-4′-((3-methoxy-5-(methylsulfonyl)phenyl)amino)-[2,3′-bipyridin]-6′-yl)acetamide] | 0.047 | – | – | – | –
18 | CC(=O)Nc1cc(Nc2cc(C)cc(S(C)(=O)=O)n2)c(-c2ccn(CC(=O)N3CCOCC3)n2)cn1 [Example A13, N-(4-((4-methyl-6-(methylsulfonyl)pyridin-2-yl)amino)-5-(1-(2-morpholino-2-oxoethyl)-1H-pyrazol-3-yl)pyridin-2-yl)acetamide] | 0.08 | – | – | – | –
19 | COC(C)c1cc(Nc2cc(NC(C)=O)ncc2-c2ccc(N3C[C@@H](C)O[C@@H](C)C3)cn2)nc(S(C)(=O)=O)c1 (single isomer, unassigned) [Example C20, N-(5-((cis)-2,6-dimethylmorpholino)-4′-((4-((R or S)-1-methoxyethyl)-6-(methylsulfonyl)pyridin-2-yl)amino)-[2,3′-bipyridin]-6′-yl)acetamide] | 0.023 | – | – | – | –
